In patent publication US12662521B2, “Engineered osteocalcins for treating sarcopenia” (The Trustees of Columbia University in the City of New York, priority 2020, dated 2026):
“Also recorded” adds a separate entry of the source. Read-outs that look alike come from different tables or passages of the source.

How the values were obtained:
[1] = Table 1, drugs developed to target muscle mass; cited from earlier work
[2] = test system: dexamethasone-treated mice; details: for running capacity / exercise / Muscle mass: dexamethasone-treated mice; for Muscle mass: oxidative, glycolytic and mixed muscles
Text: It was also further examined whether an osteocalcin treatment might preserve muscle function and/or muscle mass in a clinically relevant mouse model of sarcopenia.
FIG. 9A and FIG. 9B show exemplary graphs pf exemplary modeling sarcopenia in mice.

[3] = test system: young and older mice; test: exercise capacity of young and older mice given exogenous osteocalcin; type: in vivo; details: FIG. 1
Text: Exemplary data showing that osteocalcin signaling in myofibers favors adaptation to exercise because it increases uptake and utilization of glucose into the tricarboxylic acid cycle and promotes fatty acids utilization are included in International Patent Application Publication WO 2016/081728, the disclosure of which is incorporated herein by reference. Osteocalcin signaling in myofibers is also the main determinant of the exercise-induced upregulation of Interleukin-6, a myokine that favors the generation of bioactive osteocalcin and of nutrients made available for myofibers. Furthermore, circulating osteocalcin levels decline steeply before mid-life and increase less during exercise in older than in younger mice. […] Thus, there is an osteocalcin-interleukin-6 axis that can be necessary to enhance muscle function during exercise and can be harnessed to reverse age-induced decline in exercise capacity.
Exemplary data showing that, by signaling in myofibers, osteocalcin favors adaptation to exercise because it promotes glucose uptake and utilization in the tricarboxylic acid (TCA) cycle as well as utilization of FAs are also included in International Patent Application Publication WO 2016/081728, the disclosure of which is incorporated herein by reference. […]

[4] = test system: young and older mice; details: exogenous osteocalcin, data of WO 2016/081728, cited from earlier work
[5] = test system: animal models
[6] = test system: Liver Factor 1; test: Liver Factor 1 production during exercise; type: in vivo; details: FIG. 7
Text: OCN signaling in the liver is required for exercise capacity (see FIG. 6). OCN enhances Liver Factor 1 production during exercise (see FIG. 7). Liver Factor 1 mediates OCN regulation of exercise capacity (see FIG. 8).

[7] = test system: mice that received dexamethasone; test: deleterious effect of dexamethasone on muscle function, osteocalcin given concomitantly or after two weeks of dexamethasone; type: in vivo
[8] = test system: Dexamethasone mice; test: another recognized model of sarcopenia: dexamethasone delivered by pumps for 28 days, muscle mass and treadmill running; type: in vivo; design: dose or concentration left out as unconfirmed; details: dexamethasone by pumps for 28 days; osteocalcin also by pumps

## CN(C)N(C)C(=O)[C@@]1(Cc2ccccc2)CCCN(C(=O)[C@@H](Cc2c[nH]c3ccccc23)NC(=O)C(C)(C)N)C1 [Anamorelin, reference compound]
[1]
  Muscle mass: ✓

## C[C@](O)(COc1ccc(C#N)cc1)C(=O)Nc1ccc(C#N)c(C(F)(F)F)c1 [Enbosarm, reference compound]
[1]
  Muscle mass: ✓

## C[C@H](Nc1ccc(C#N)c(Cl)c1Cl)C(C)(C)O [GSK2849466, reference compound]
[1]
  Muscle mass: ✓

## N#Cc1ccc(N2CCC[C@@H]2[C@@H](O)C(F)(F)F)cc1C(F)(F)F [VK5211, reference compound]
[2]
  running capacity / exercise: only had a modest effect
  Muscle mass: fully restored muscle mass to normal levels
[1]
  Muscle mass: ✓

## C[C@@H]1C[C@H]2[C@@H]3CCC4=CC(=O)C=C[C@]4(C)[C@@]3(F)[C@@H](O)C[C@]2(C)[C@@]1(O)C(=O)CO [dexamethasone, reference compound]
[2]; after dexamethasone treatment
  decrease of circulating lymphocyte counts: 50%
[2]; mouse, in vivo
  diminution of gastrocnemius muscle mass: 30%
  reduction of running capacity: 50%

## osteocalcin (YLGASVPSPDPLEPTREQCELNPACDELSDQYGLKTAYKRIYGITI; UniProt P86546 50-95, looked up) [a bone-derived hormone]
[2]; Dex-induced sarcopenia
  performance compared with VK5211: outperforms
[2]; FIG. 12
  IL-6 in Dex-induced sarcopenia: favors IL-6
[2]
  running capacity / exercise: fully rescued the running capacity
[2]; listed as OCN
  Muscle mass: marginal effect
[2]; mouse, in vivo
  DEX toxicity: does not interfere
  dexamethasone-induced immune suppression (circulating lymphocyte counts): did not interfere with nor did it exacerbate
  off-target effects: no overt off-target effects
[3]
  age-related decline in exercise: corrects
[4]; 12 to 15 month-old mice
  exercise capacity of older mice: confers to 15 months-old mice exercise capacity of 3 month-old mice; also recorded: confers to 12 to 15 month-old mice the exercise capacity of 3 month-old mice
[4]
  exercise capacity of young mice: increases the exercise capacity
[5]
  safety / negative side-effects: safe with no recorded negative side-effects
[6]
  Liver Factor 1 production during exercise: enhances
[7]; concomitant treatment with osteocalcin, 1 year-old mice
  deleterious effect of dexamethasone on muscle function: presented
[7]; osteocalcin administered in mice that had already received dexamethasone for two weeks
  deleterious effect of dexamethasone on muscle function: partially revert
[8]
  Muscle mass: lost significantly less muscle mass
  exercise capacity (ability to run on a treadmill): normal exercise capacity

B1: BYM338: Myostatin inhibitor, Novartis (antibody, chains of the INN, looked up, V domains shown)
VH: QVQLVQSGAEVKKPGASVKVSCKASGYTFTSSYINWVRQAPGQGLEWMGTINPVSGSTSYAQKFQGRVTMTRDTSISTAYMELSRLRSDDTAVYYCARGGWFDYWGQGTLVTVSS
VL: QSALTQPASVSGSPGQSITISCTGTSSDVGSYNYVNWYQQHPGKAPKLMIYGVSKRPSGVSNRFSGSKSGNTASLTISGLQAEDEADYYCGTFAGGSYYGVFGGGTKLTVL
[1]
  Muscle mass: ✓

B2: LY2495655: Myostatin inhibitor, Eli Lilly (antibody, chains of the INN, looked up, V domains shown)
VH: EVQLVESGGGLVQPGGSLRLSCAASGLTFSRYPMSWVRQAPGKGLVWVSAITSSGGSTYYSDTVKGRFTISRDNAKNTLYLQMNSLRAEDTAVYYCARLPDYWGQGTLVTVSS
VL: EIVLTQSPGTLSLSPGERATLSCRASSSVSSSYLHWYQQKPGQAPRLLIYSTSNLVAGIPDRFSGSGSGTDFTLTISRLEPEDFAVYYCQHHSGYHFTFGGGTKVEIK
[1]
  Muscle mass: ✓

B3: REGN1033: Myostatin inhibitor, Regeneron (antibody, chains of the INN, looked up, V domains shown)
VH: EVQVLESGGDLVQPGGSLRLSCAASGFTFSAYAMTWVRQAPGKGLEWVSAISGSGGSAYYADSVKGRFTISRDNSKNTVYLQMNSLRAEDTAVYYCAKDGAWKMSGLDVWGQGTTVIVSS
VL: DIQMTQSPASLSASVGDRVTITCRASQDISDYLAWYQQKPGKIPRLLIYTTSTLQSGVPSRFRGSGSGTDFTLTISSLQPEDVATYYCQKYDSAPLTFGGGTKVEIK
[1]
  Muscle mass: ✓

B4: PF-06252616: Myostatin inhibitor, Pfizer (antibody, chains of the INN, looked up, V domains shown)
VH: EVQLLESGGGLVQPGGSLRLSCAASGFTFSSYAMSWVRQAPGKGLEWVSTISSGGSYTSYPDSVKGRFTISRDNSKNTLYLQMNSLRAEDTAVYYCAKQDYAMNYWGQGTLVTVSS
VL: DIQMTQSPSSLSASVGDRVTITCKASQDVSTAVAWYQQKPGKAPKLLIYSASYRYTGVPSRFSGSGSGTDFTLTISSLQPEDFATYYCQQHYSTPWTFGGGTKVEIK
[1]
  Muscle mass: ✓
